Experimental data published in patent publication EP0420266A2, “Chromene or thiochromene derivatives, process for preparing the same, intermediate therefor, pharmaceutical compositions containing said derivatives and the use of said derivatives” (TANABE SEIYAKU CO., LTD., priority 1989, dated 1991).

Molecular target: T1, HMG-CoA reductase (HMGR) (Rattus norvegicus, UniProt P51639)
T1 construct: Microsomes prepared from liver of rats administered with cholestyramine; from tissue
T1 sequence (P51639 1-887): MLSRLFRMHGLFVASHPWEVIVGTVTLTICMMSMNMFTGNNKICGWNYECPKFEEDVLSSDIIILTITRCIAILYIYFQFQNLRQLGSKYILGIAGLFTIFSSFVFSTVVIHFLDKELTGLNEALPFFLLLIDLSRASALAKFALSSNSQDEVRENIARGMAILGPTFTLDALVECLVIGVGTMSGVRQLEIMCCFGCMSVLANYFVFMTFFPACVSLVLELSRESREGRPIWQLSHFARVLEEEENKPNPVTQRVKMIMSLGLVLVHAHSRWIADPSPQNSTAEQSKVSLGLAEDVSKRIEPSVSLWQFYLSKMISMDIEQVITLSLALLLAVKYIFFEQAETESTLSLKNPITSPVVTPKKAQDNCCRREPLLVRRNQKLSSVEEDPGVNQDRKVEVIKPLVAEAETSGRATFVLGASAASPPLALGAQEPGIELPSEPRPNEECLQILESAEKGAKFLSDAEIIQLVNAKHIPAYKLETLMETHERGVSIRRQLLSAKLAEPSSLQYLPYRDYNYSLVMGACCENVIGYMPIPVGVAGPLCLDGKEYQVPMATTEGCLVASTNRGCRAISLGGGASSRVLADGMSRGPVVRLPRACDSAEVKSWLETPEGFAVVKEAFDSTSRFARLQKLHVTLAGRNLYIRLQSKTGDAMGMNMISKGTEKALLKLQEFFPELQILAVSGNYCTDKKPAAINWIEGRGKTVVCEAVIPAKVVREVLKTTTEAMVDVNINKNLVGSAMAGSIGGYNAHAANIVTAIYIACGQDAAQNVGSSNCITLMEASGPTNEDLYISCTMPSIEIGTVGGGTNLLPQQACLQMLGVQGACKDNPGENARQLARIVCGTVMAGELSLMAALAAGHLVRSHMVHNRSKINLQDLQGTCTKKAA
Assay: Inhibitory activity against rat hepatic microsomal HMG-CoA reductase (HMGR)
Format: biochemical
Settings: rat liver microsomes, ¹⁴C-HMG-CoA substrate, 10 minutes incubation
Description: Experiment [Inhibitory Activity against Rat Hepatic Microsomal HMG-CoA reductase (HMGR)]
HMGR activities of microsomes were measured in accordance with the method of N. L. Young et al., Methods in Enzymology, 71, 498 (1981).
Microsomes prepared from liver of rats administered with cholestyramine were mixed with a solution of the compounds to be tested in dimethyl sulfoxide and ¹⁴C-HMG-CoA (substrate). After the mixture was incubated for 10 minutes, the reaction was quenched with 6N hydrochloric acid and the mixture was allowed to stand at 37°C for 15 minutes, followed by centrifugation. The supernatant was spotted on thin layer chromatography (TLC; Kieselgel 60F254 manufactured by Merck) and developed with toluene/acetone (1:1). The spot of ¹⁴C-mevalonolactone was collected and the amount of isotope was measured with a scintillation counter (Type 4640 TRI-CARB. manufactured by Paccard) to calculate an amount of the formed mevalonolactone. By comparing amounts of the formed mevalonolactone in the group treated with test compounds and the control group (without test compounds), HMGR activity inhibition rates of the test compounds were calculated.

SMILES	HMGR Inhibition (%) (Conc. of Compounds 10⁻⁶ M)	HMGR Inhibition (%) (Conc. of Compounds 10⁻⁷ M)
CCC1(CC)Oc2ccccc2C(c2ccc(F)cc2)=C1/C=C/[C@@H](O)C[C@@H](O)CC(=O)[O-].[Na+] (relative stereo) [A, (3R*,5S*)-(E)-7-[4-(4-Fluorophenyl)-2,2-diethyl-2H-chromen-3-yl]-3,5-dihydroxy-6-heptenoic acid sodium salt]	100%	67%
CCC1(CC)Oc2ccccc2C(c2ccc(F)cc2)=C1/C=C/[C@H]1C[C@H](O)CC(=O)O1 (relative stereo) [B, Trans-(E)-6-[2-(4-(4-fluorophenyl)-2,2-diethyl-2H-chromen-3-yl)-1-ethenyl]-3,4,5,6-tetrahydro-4-hydroxy-2H-pyran-2-one]	84%	32%
CCC1(CC)Sc2ccccc2C(c2ccc(F)cc2)=C1/C=C/[C@@H](O)C[C@@H](O)CC(=O)[O-].[Na+] (relative stereo) [C, (+)-(3R*,5S*)-(E)-7-[4-(4-Fluorophenyl)-2,2-diethyl-2H-thiochromen-3-yl]-3,5-dihydroxy-6-heptenoic acid sodium salt]	90%	45%
